The text below walks through data of patent US20260226073A1 (AURIGENE ONCOLOGY LIMITED, priority 2023, published 2026).

Test [1] concerns the target T1, human recombinant CBL-b (human Biotin CBL-b recombinant protein a.a. 39-426) (Homo sapiens, UniProt Q13191).
T1 construct: human Biotin CBL-b recombinant protein a.a; 39-426; Biotin (biotinylated); made in house
Put plainly: Biochemical assay for CBL-b inhibition (ligand displacement TR-FRET). Format: binding. The conditions noted are these: 50 nM CBL-b, 0.3 μM Bodipy FL-Probe, read-out: IC50 (CBL-b inhibition, group). The method in brief:
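Biotinylated CBL-b (a.a. 39-426, 50 nM final) pre-incubated with compound 60 min at RT in HEPES/NaCl/Triton/BSA/TCEP buffer, then Bodipy FL probe (0.3 μM final) 60 min, then terbium-streptavidin 60 min. TR-FRET read at 665/615 nm; IC50 and % max inhibition from sigmoidal fits.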
In general terms: In TR-FRET formats the signal depends on donor and acceptor labels being close together.

Test [2] has as its system NFAT signaling pathway in Jurkat NFAT reporter cells. The test is described as follows: Jurkat NFAT reporter assay. Format: cell-based. The conditions noted are these: Homo sapiens, 30 min with compound, then soluble anti-human CD3/CD28 antibody for 6 hours, luciferase readout, read-out: EC50 (Group). Here is the method:
A human T lymphocyte Jurkat reporter cell line was further used to assess activation of the nuclear factor of activated T-cells (NFAT) signaling pathway by Cbl-b inhibitors. The reporter cell line is a genetically engineered Jurkat T cell line that expresses a luciferase reporter driven by an NFAT-response element (NFAT-RE). The Cbl-b inhibitor was incubated with 1×10^5 Jurkat NFAT reporter cells per well for 30 minutes. Subsequently, cells were stimulated with soluble anti-human CD3/CD28 antibody for 6 hours resulting in NFAT-RE-mediated luminescence. The bioluminescent signal is detected and quantified using Bio-Glo™ Luciferase Assay System. Readouts were reported as fold change over baseline. Here, baseline was the measurement obtained from Jurkat NFAT reporter cells stimulated with anti-CD3 antibody and anti-CD28 antibody, where the cells were not incubated with a Cbl-b inhibitor.

T1 sequence (Q13191 39-426): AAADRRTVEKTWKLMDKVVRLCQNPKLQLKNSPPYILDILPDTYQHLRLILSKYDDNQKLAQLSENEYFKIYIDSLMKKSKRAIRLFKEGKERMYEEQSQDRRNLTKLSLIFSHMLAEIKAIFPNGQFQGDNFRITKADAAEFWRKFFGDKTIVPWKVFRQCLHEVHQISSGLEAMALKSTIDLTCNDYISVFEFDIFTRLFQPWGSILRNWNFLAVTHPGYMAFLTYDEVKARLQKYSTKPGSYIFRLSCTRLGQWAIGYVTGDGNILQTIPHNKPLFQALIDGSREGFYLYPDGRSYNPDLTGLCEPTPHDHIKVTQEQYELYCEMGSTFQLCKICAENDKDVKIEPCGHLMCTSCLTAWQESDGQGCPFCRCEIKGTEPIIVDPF

For orientation: IC50 means the concentration that gives 50% inhibition. As usually defined, the EC50 is the concentration at which the effect is half-maximal. For `Cn1cnnc1CC1(c2ccc3c(c2)C(=O)N(c2cc(CNCC4CCC4)cc(C(F)(F)F)n2)C3)COC1` [Compound 162, 2-(4-(((Cyclobutylmethyl)amino)methyl)-6-(trifluoromethyl)pyridin-2-yl)-6-(3-((4-methyl-4H-1,2,4-triazol-3-yl)methyl)oxetan-3-yl)isoindolin-1-one], the 50% inhibitory concentration (IC50) in test [1] is below 80 nM. Moreover, in test [2], the 50% effective concentration (EC50) is below 300 nM.

`Cc1ccc(-c2ccc3c(c2)C(=O)N(c2cc(CNCC4CC4)cc(C)n2)C3)c(-c2nncn2C)c1` [Compound 277, 2-(4-(((Cyclopropylmethyl)amino)methyl)-6-methylpyridin-2-yl)-6-(4-methyl-2-(4-methyl-4H-1,2,4-triazol-3-yl)phenyl)isoindolin-1-one]: in test [1], the IC50 was below 80 nM. Besides, the EC50 in test [2] is 1000 to 10000 nM.

Regarding `Cn1cnnc1CC1(c2ccc3c(c2)C(=O)N(c2cc(CN4CC5(CCC5)C4)cc(C(F)(F)F)n2)C3)COC1` [Compound 51, 2-(4-((2-Azaspiro[3.3]heptan-2-yl)methyl)-6-(trifluoromethyl)pyridin-2-yl)-6-(3-((4-methyl-4H-1,2,4-triazol-3-yl)methyl)oxetan-3-yl)isoindolin-1-one], the IC50 in test [1] lay within 300 to 5000 nM. The 50% effective concentration (EC50) in test [2] lay within 1000 to 10000 nM.

For the compound `C[C@H]1CCCN(Cc2cc(Cl)nc(N3Cc4ccc([C@H](C)Cc5nncn5C)cc4C3=O)c2)C1` (single isomer, unassigned) [Compound 90], in test [1], the IC50 is below 80 nM. Besides, the EC50 in test [2] is below 300 nM.

`CC(NC1CCCC1)c1cc(Cl)nc(N2Cc3ccc(-c4ccc(Cl)cc4-c4nncn4C)cc3C2=O)c1` (single isomer, unassigned) [Compound 104, 6-(4-Chloro-2-(4-methyl-4H-1,2,4-triazol-3-yl)phenyl)-2-(6-chloro-4-(1-(cyclo-pentylamino)ethyl)pyridin-2-yl)isoindolin-1-one]: the 50% inhibitory concentration (IC50) in test [1] is below 80 nM. In addition, the EC50 in test [2] is below 300 nM.

For `CC1CN(Cc2cc(Cl)nc(N3Cc4ccc(C5(Cc6nncn6C)COC5)cc4C3=O)c2)CC1F` (stereo not shown) [Compound 197], the IC50 in test [1] is below 80 nM. In test [2], the half-maximal effective concentration (EC50) was in the range of 300 to 1000 nM.

On to `C[C@H]1CCCN(Cc2cc(CC3CC3)cc(N3Cc4ccc(C5(Cc6nncn6C)COC5)cc4C3=O)c2)C1` [Compound 49, (S)-2-(3-(Cyclopropylmethyl)-5-((3-methylpiperidin-1-yl)methyl)phenyl)-6-(3-((4-methyl-4H-1,2,4-triazol-3-yl)methyl)oxetan-3-yl)isoindolin-1-one], for which, in test [1], the half-maximal inhibitory concentration (IC50) was 80 to 300 nM. Also, the EC50 in test [2] lay in the range of 300 to 1000 nM.

Consider `C[C@H]1CCCN(Cc2cccc(N3Cc4ccc(C5(Cc6nncn6C)COC5)cc4C3=O)c2)C1` [Compound 8, (S)-6-(3-((4-Methyl-4H-1,2,4-triazol-3-yl)methyl)oxetan-3-yl)-2-(3-((3-methyl-piperidin-1-yl)methyl)phenyl)isoindolin-1-one], for which the half-inhibitory concentration (IC50) in test [1] was in the range of 300 to 5000 nM. For the same compound, the EC50 in test [2] fell in the range of 1000 to 10000 nM.

For `Cn1cnnc1CC1(c2ccc3c(c2)C(=O)N(c2cc(CN4CCCCCC4)cc(Cl)n2)C3)COC1` [Compound 157], in test [1], the concentration for half-maximal inhibition (IC50) is below 80 nM. In test [2], the EC50 is below 300 nM.

As to `C[C@H]1CCCN(Cc2cc(C3CC3)cc(N3Cc4ccc(C5(Cc6nncn6C)COC5)cc4C3=O)c2)C1` [Compound 7, (S)-2-(3-Cyclopropyl-5-((3-methylpiperidin-1-yl)methyl)phenyl)-6-(3-((4-methyl-4H-1,2,4-triazol-3-yl)methyl)oxetan-3-yl)isoindolin-1-one], in test [1], the IC50 was in the range of 80 to 300 nM. The EC50 in test [2] fell in the range of 300 to 1000 nM.

For the compound `C[C@H]1CCCN(Cc2cc(Cl)nc(N3Cc4ccc([C@H](Cc5nncn5C)C(F)(F)F)cc4C3=O)c2)C1` (single isomer, unassigned) [Compound 181], the IC50 in test [1] is below 80 nM. For the same compound, the EC50 in test [2] is 300 to 1000 nM.

Consider `Cn1cnnc1CC1(c2ccc3c(c2)C(=O)N(c2cc(CNC4CCCC4)cc(Cl)n2)C3)COC1` [Compound 201, 2-(6-Chloro-4-((cyclopentylamino)methyl)pyridin-2-yl)-6-(3-((4-methyl-4H-1,2,4-triazol-3-yl)methyl)oxetan-3-yl)isoindolin-1-one], for which the IC50 in test [1] is below 80 nM. Moreover, the half-maximal effective concentration (EC50) in test [2] is below 300 nM.

In the case of `Cn1cnnc1CC1(c2ccc3c(c2)C(=O)N(c2cc(CN4CCc5ccccc5C4)cc(C(F)(F)F)n2)C3)COC1` [Compound 31, 2-(4-((3,4-Dihydroisoquinolin-2(1H)-yl)methyl)-6-(trifluoromethyl)pyridin-2-yl)-6-(3-((4-methyl-4H-1,2,4-triazol-3-yl)methyl)oxetan-3-yl)isoindolin-1-one], in test [1], the half-maximal inhibitory concentration (IC50) was 300 to 5000 nM. In test [2], the EC50 was 1000 to 10000 nM.

For `Cc1cc(CNCC2CC(F)(F)C2)cc(N2Cc3ccc(-c4ccc(Cl)cc4-c4nncn4C)cc3C2=O)n1` [Compound 279, 6-(4-Chloro-2-(4-methyl-4H-1,2,4-triazol-3-yl)phenyl)-2-(4-((((3,3-difluoro-cyclobutyl)methyl)amino)methyl)-6-methylpyridin-2-yl)isoindolin-1-one], the IC50 in test [1] was below 80 nM. The EC50 in test [2] was below 300 nM.

On to `Cn1cnnc1CC1(c2ccc3c(c2)C(=O)N(c2cc(CNC4CCCC4O)cc(Cl)n2)C3)COC1` (stereo not shown) [Compound 193, 2-(6-Chloro-4-(((2-hydroxycyclopentyl)amino)methyl)pyridin-2-yl)-6-(3-((4-methyl-4H-1,2,4-triazol-3-yl)methyl)oxetan-3-yl)isoindolin-1-one], for which the IC50 in test [1] was below 80 nM. For the same compound, the half-maximal effective concentration (EC50) in test [2] was 1000 to 10000 nM.

Turning to `C[C@H]1CCCN(Cc2cc(Cl)nc(N3Cc4ccc(-c5ccc(Cl)cc5-c5nncn5C)cc4C3=O)c2)C1` [Compound 113, (S)-6-(4-Chloro-2-(4-methyl-4H-1,2,4-triazol-3-yl)phenyl)-2-(6-chloro-4-((3-methylpiperidin-1-yl)methyl)pyridin-2-yl)isoindolin-1-one], in test [1], the IC50 is below 80 nM. Further, the EC50 in test [2] is below 300 nM.

Regarding `COC1CCCC1NCc1cc(Cl)nc(N2Cc3ccc(C4(Cc5nncn5C)COC4)cc3C2=O)c1` (stereo not shown) [Compound 253, 2-(6-Chloro-4-(((2-methoxycyclopentyl)amino)methyl)pyridin-2-yl)-6-(3-((4-methyl-4H-1,2,4-triazol-3-yl)methyl)oxetan-3-yl)isoindolin-1-one], in test [1], the IC50 was below 80 nM. Besides, the half-maximal effective concentration (EC50) in test [2] is below 300 nM.

As to `C[C@H]1CCCN(Cc2cc(Cl)nc(N3Cc4ccc([C@]5(Cc6nncn6C)C[C@@H](C#N)C5)cc4C3=O)c2)C1` (single isomer, unassigned) [Compound 179], the IC50 in test [1] was below 80 nM. Also, the concentration giving a half-maximal response (EC50) in test [2] was below 300 nM.

With `CC(NCC1CC1)c1cc(Cl)nc(N2Cc3ccc(C4(Cc5nncn5C)CC(C#N)C4)cc3C2=O)c1` (stereo not shown) [Compound 225, 3-(2-(6-Chloro-4-(1-((cyclopropylmethyl)amino)ethyl)pyridin-2-yl)-3-oxoiso-indolin-5-yl)-3-((4-methyl-4H-1,2,4-triazol-3-yl)methyl)cyclobutane-1-carbonitrile], the half-inhibitory concentration (IC50) in test [1] is below 80 nM. Further, the concentration for a half-maximal effect (EC50) in test [2] was below 300 nM.

On to `Cc1cc(CNCC2CC2)cc(N2Cc3ccc(-c4ncc(Cl)cc4-c4nncn4C)cc3C2=O)n1` [Compound 263, 6-(5-Chloro-3-(4-methyl-4H-1,2,4-triazol-3-yl)pyridin-2-yl)-2-(4-(((cyclo-propylmethyl)amino)methyl)-6-methylpyridin-2-yl)isoindolin-1-one], for which the IC50 in test [1] is below 80 nM. Besides, in test [2], the EC50 is 1000 to 10000 nM.
